From US20060205671A1 (priority 2003, published 2006)
Like-named read-outs stand apart in the source and are kept apart here.

Legend:
[1] = tested on: models of LAD occlusion followed by reperfusion; conditions: at onset of reperfusion, continued 2 hours post-reperfusion; cited from earlier work
[2] = tested on: rabbit model of coronary occlusion-reperfusion; conditions: cited from earlier work; for Effect of antagonist on the effects of PolyA (infarct size): given with PolyA, KW-3902 1 mg/kg i.v.
[3] = tested on: canine model of LAD occlusion with reperfusion; conditions: cited from earlier work
neutrophils = conditions: cited from earlier work; for Superoxide generation by neutrophils: neutrophils activated by fMLP, A23187, concanavalin A (adenosine)
[4] = tested on: closed-chest porcine model of regional ischemia and reperfusion; test: Non-surgical ischemia-reperfusion injury in a closed-chest porcine model (75 min LAD occlusion, reperfusion); format: in vivo
Experimental: The use of combined adenosine and aprotinin treatment in the cath-lab setting was performed in a closed-chest porcine model of regional ischemia and reperfusion. Farm-bred pigs were initially anesthetized with ketamine, xylazine, acepromazine, diazepam and atropine, followed by maintenance anesthesia with inhaled isoflurane. Through a small femoral artery cut-down, a pigtail catheter was fluoroscopically guided into the left ventricle for injection of non-radioactive microspheres to measure regional myocardial blood flow. A similar cut-down was performed on the contralateral femoral artery, through which was placed a sheath to introduce a 7-Fr guide catheter and angioplasty-type balloon catheters. The 7-Fr guide catheter was inserted into this sheath and fluoroscopically guided to the left main coronary artery. The left main coronary ostium was engaged by the catheter and a guide wire. An angioplasty-type balloon catheter was guided into the LAD just distal to the first diagonal branch. […]
After all instrumentation was complete, the animal was allowed to stabilize for 10 minutes. Baseline hemodynamics (arterial pressure, heart rate) and myocardial blood flow (microspheres) were measured. The microspheres were injected via the pigtail catheter to quantify myocardial blood flow during steady state. […]

[5] = tested on: reperfusion injury in the canine preparation; conditions: 24 hours after start of reflow, cited from earlier work
platelets = conditions: exogenous adenosine; cited from earlier work
[6] = tested on: ischemically injured hearts (30 minutes of normothermic global ischemia); conditions: blood cardioplegia supplemented with 400 μM adenosine vs unsupplemented; cited from earlier work
[7] = tested on: canine model of severe coronary occlusion; conditions: 10 μM in blood perfusate, first 30 min of reperfusion; after two hours of reperfusion; vs vehicle; cited from earlier work
[8] = tested on: permanent (24 hours) coronary artery occlusion; conditions: 100,000 KIU i.v. 30 minutes after occlusion; cited from earlier work
[9] = tested on: canine model of 15 minutes coronary artery occlusion; conditions: 30,000 KIU/kg bolus plus 7,000 KIU/kg/hr i.v. prior to occlusion; vs saline control; cited from earlier work
[10] = tested on: rat model of coronary artery occlusion and 24 hours of reperfusion; conditions: cited from earlier work
isolated canine hearts = conditions: cardioplegia containing 150 KIU aprotinin, cited from earlier work
isolated rat hearts = conditions: 105 KIU/L aprotinin, pretreatment and adjunct to crystalloid cardioplegia; cited from earlier work
rat myocardium slices = conditions: 200 KIU aprotinin, cited from earlier work
[11] = infusion for first hour of reperfusion
[12] = 5,000 KIU/kg before onset of reperfusion, vs vehicle
[13] = 20,000 KIU/kg before onset of reperfusion

1S-[1a,2b,3b,4a(S*)]]-4-[7-[[2-(3-chloro-2-thienyl)-1-methylpropyl]amino]-3H-imidazo[4,5-b]pyridyl-3-yl]cyclopentane carboxamide [AMP-579]
Infarct size [1]: reduced

Cn1c(=O)c2[nH]c(-c3ccc(S(=O)(=O)O)cc3)nc2n(C)c1=O [8-SPT, 8-p-sulfophenyl theophylline]
Effect of antagonist on the effects of PolyA (infarct size) [2]: reversed

CCNC(=O)[C@H]1O[C@@H](n2cnc3c(N)nc(NCCc4ccc(CCC(=O)O)cc4)nc32)[C@H](O)[C@@H]1O [CGS-21680, 2-[p-(2-carbonyl-ethyl)-phenylethylamino]-5′-N-ethylcarboxamidoadenosine]
Infarct size ([3]; 60 min occlusion, intracoronary infusion for first hour of reperfusion, saline vehicle 29.8±2.3%): 15.4±2.9 % of the area at risk
Neutrophil accumulation in the area at risk [3, 11]: significantly reduced
Wall motion [3, 11]: no improvement
Superoxide generation by neutrophils (neutrophils): attenuated

CCCn1c(=O)c2[nH]c(C34CC5CC(CC3C5)C4)nc2n(CCC)c1=O [KW-3902, 8-(3-noradamantyl)-1,3-dipropylxanthine]
Effect of antagonist on the effects of PolyA (infarct size) [2]: not altered

Nc1ncnc2c1ncn2[C@@H]1O[C@H](CO)[C@@H](O)[C@H]1O [adenosine]
Infarct size ([4]; intracoronary adenosine approx 10-20 μM LAD blood concentration for about 30 min at reperfusion, group of three animals, delivery questionable (no vasodilatory effect at 15 min)): 40.4±3.6%
Infarct size ([4]; intracoronary adenosine approx 10-20 μM for about 30 min at reperfusion, the one experiment with delivery confirmed by vasodilation at 15 min reperfusion): 10%
Regional contractile function ([5]; intracoronary 3.75 mg/min at onset of reperfusion): improved
Reduction of infarct size ([5]; intracoronary into LAD 3.75 mg/min at onset of reperfusion): 75%
Concentrations inhibiting platelet aggregation (platelets): 2 to 40 µM
Superoxide generation by neutrophils (neutrophils): inhibited
Post-ischemic systolic dysfunction [6]: reversed
Infarct size as percent of AAR (An/ARR) [7]: significantly lower
Infarct size as percent of LV (An/LV) [7]: significantly lower

aprotinin
Histologically apparent infarct size [8]: decreased
Recovery of systolic function in the area at risk (systolic shortening) [9]: significantly greater recovery
Infarct size estimated from myocardial creatine kinase loss [10, 12]: significantly reduced
Neutrophil accumulation (myocardial myeloperoxidase) [10, 12]: significantly reduced
Appearance of apoptosis in the area at risk myocardium ([10]; 5,000 or 20,000 KIU/kg before onset of reperfusion): attenuated
Infarct size estimated from myocardial creatine kinase loss [10, 13]: further significantly reduced
Neutrophil accumulation (myocardial myeloperoxidase) [10, 13]: significantly reduced
Lysosomal enzyme N-acetyl-β-D-glucosaminidase in coronary sinus blood during reperfusion (isolated canine hearts): significantly lower
Recovery of systolic function (end-systolic pressure-volume relationship) (isolated canine hearts): significantly less recovery
Post-ischemic non-specific creatine kinase (CK) activity or CK-MB isoenzyme activity (isolated canine hearts; vs control group): no difference
Recovery of post-ischemic ATP after reperfusion (isolated canine hearts; vs control group): significantly greater
Myocardial protection (isolated rat hearts): significant protection
ATP content and protein synthesis of myocardium slices (rat myocardium slices; 4° C., up to 6 hours of storage): attenuated the decline
TNFα generation and uptake by myocardial tissue slices (rat myocardium slices): suppressed

polyadenylic acid
Reduction of infarct size ([2]; nearly sub-vasodilator dose at reperfusion): 50%
PMNs superoxide generation and adherence to coronary endothelium (neutrophils): significantly inhibited
